Measurements as given in patent US20260374773A1, “MULTI-CYCLIC IRAK AND FLT3 INHIBITING COMPOUNDS AND USES THEREOF” (CHILDREN'S HOSPITAL MEDICAL CENTER, priority 2022, published 2026).

Legend:
Details in all cases: no ATP
[1] = target: T1, FLT3 ITD, D835V (Homo sapiens, UniProt P36888, D835V/ITD); assay: DiscoverX KINOMEscan active site-directed competition binding, FLT3 ITD, D835V
T1 sequence (P36888 27-993 D835V): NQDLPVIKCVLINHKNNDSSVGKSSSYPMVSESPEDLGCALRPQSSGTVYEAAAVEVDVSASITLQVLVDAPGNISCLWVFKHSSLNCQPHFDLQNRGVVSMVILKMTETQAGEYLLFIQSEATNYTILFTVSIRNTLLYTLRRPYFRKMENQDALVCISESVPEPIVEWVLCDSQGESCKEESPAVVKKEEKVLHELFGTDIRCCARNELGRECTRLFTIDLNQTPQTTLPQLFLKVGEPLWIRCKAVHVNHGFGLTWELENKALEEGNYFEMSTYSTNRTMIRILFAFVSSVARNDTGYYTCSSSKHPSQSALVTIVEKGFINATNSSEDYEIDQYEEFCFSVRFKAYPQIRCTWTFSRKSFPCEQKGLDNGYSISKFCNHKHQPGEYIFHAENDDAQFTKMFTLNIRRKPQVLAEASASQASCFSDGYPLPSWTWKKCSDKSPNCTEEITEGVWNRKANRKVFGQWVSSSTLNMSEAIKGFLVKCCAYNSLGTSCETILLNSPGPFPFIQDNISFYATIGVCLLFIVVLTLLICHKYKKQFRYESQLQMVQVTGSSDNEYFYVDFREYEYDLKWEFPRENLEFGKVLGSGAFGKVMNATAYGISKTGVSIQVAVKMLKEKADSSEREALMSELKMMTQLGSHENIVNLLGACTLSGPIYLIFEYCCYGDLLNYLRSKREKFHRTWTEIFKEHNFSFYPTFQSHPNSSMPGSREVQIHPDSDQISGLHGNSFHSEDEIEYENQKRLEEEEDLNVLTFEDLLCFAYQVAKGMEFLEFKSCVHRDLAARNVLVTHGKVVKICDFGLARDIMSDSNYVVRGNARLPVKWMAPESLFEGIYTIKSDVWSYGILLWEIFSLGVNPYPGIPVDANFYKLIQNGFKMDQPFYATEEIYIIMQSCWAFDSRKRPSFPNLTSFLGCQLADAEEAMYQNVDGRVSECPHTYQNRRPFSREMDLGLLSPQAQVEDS
Description: (§1) Kinase binding data were obtained for various exemplary compounds prepared according to Examples 1-8 using the DiscoverX KINOMEscan® active site-directed competition binding site-directed assay protocol described below. […] As a result, the data report thermodynamic interaction affinities (Kd values), rather than IC50 values that are dependent on ATP concentrations. The assay uses a DNA-tagged version of the protein kinase, and an immobilized ligand bound to a solid support. Compounds that directly or indirectly prevent kinase binding to the immobilized ligand reduce the amount of kinase captured on the solid support, which is detected using an ultra-sensitive qPCR method. Affinity constants reported from the assay have been reported to be independent of the immobilized ligand used that is coupled to the solid support (See supplemental information in Fabian, M. A. et. al., (2005) Nat. Biotechnol. 23, 329-336; Wodicka, L. M. et. al., (2010) Chem. Biol. 17, 1241-1249.)
(§2) Kinase-tagged T7 phage strains were prepared in an E. coli host derived from the BL21 strain. E. coli were grown to log-phase and infected with T7 phage and incubated with shaking at 32 °C until lysis. The lysates were centrifuged and filtered to remove cell debris. The remaining kinases were produced in HEK-293 cells and subsequently tagged with DNA for qPCR detection. Streptavidin-coated magnetic beads were treated with biotinylated small molecule ligands for 30 minutes at room temperature to generate affinity resins for kinase assays. The liganded beads were blocked with excess biotin and washed with blocking buffer (SeaBlock (Pierce), 1% BSA, 0.05% Tween 20, 1 mM DTT) to remove unbound ligand and to reduce non-specific binding. […] Test compounds were prepared as 111x stocks in 100% DMSO. Kds were determined using an 11-point 3-fold compound dilution series with three DMSO control points. All compounds for Kd measurements are distributed by acoustic transfer (non-contact dispensing) in 100% DMSO. The compounds were then diluted directly into the assays such that the final concentration of DMSO was 0.9%. All reactions were performed in polypropylene 384-well plates. Each was a final volume of 0.02 mL. The assay plates were incubated at room temperature with shaking for 1 hour and the affinity beads were washed with wash buffer (1×PBS, 0.05% Tween 20). The beads were then re-suspended in elution buffer (1×PBS, 0.05% Tween 20, 0.5 μM nonbiotinylated affinity ligand) and incubated at room temperature with shaking for 30 minutes. The kinase concentration in the eluates was measured by qPCR. Binding constants (Kds) were calculated with a standard dose-response curve using the Hill equation. The Hill Slope was set to −1. Curves were fitted using a non-linear least square fit with the Levenberg-Marquardt algorithm.
as §1, with “9-12” for “1-8”
(§3) Kinase-tagged T7 phage strains were prepared in an E. coli host derived from the BL21 strain. […]

[2] = target: T2, FLT3 ITD, F691L (Homo sapiens, UniProt P36888, F691L/ITD); assay: DiscoverX KINOMEscan active site-directed competition binding, FLT3 ITD, F691L
T2 construct: F691L gatekeeper
T2 sequence (P36888 27-993 F691L): T1 sequence (P36888 27-993 D835V)
Description: as §1, §2
as §1, with “9-12” for “1-8”
as §3

[3] = target: T3, FLT3 Autoinh. (Homo sapiens, UniProt P36888); assay: DiscoverX KINOMEscan active site-directed competition binding, FLT3 Autoinh.
T3 sequence (P36888 27-993): T1 sequence (P36888 27-993 D835V)
Description: as §1, §2
as §1, with “9-12” for “1-8”
as §3

Structure (SMILES)	Kd ([1]; Table 19)	Kd ([2]; Table 19)	Kd ([3]; Table 19)	Kd ([1]; Table 13)	Kd ([2]; Table 13)	Kd ([3]; Table 13)
COc1cn2ncc(-c3nc(N[C@H]4CNCC[C@@H]4F)c(C#N)cc3F)c2nc1C1CC1 [Compound 7, 6-(5-cyclopropyl-6-methoxypyrazolo[1,5-a]pyrimidin-3-yl)-5-fluoro-2-(((3S,4S)-4-fluoropiperidin-3-yl)amino)nicotinonitrile]	–	–	–	< 0.17 nM	< 0.17 nM	0.68 nM
COc1cn2ncc(-c3ccnc(N[C@H]4CNCC[C@@H]4F)n3)c2nc1C1CC1 [Compound 7a, 4-(5-cyclopropyl-6-methoxypyrazolo[1,5-a]pyrimidin-3-yl)-N-((3S,4S)-4-fluoropiperidin-3-yl)pyrimidin-2-amine]	< 0.17 nM	< 0.17 nM	12 nM	–	–	–
COc1cn2ncc(-c3cncc(N[C@H]4CNCC[C@@H]4F)n3)c2nc1C1CC1 [Compound 12a, 6-(5-cyclopropyl-6-methoxypyrazolo[1,5-a]pyrimidin-3-yl)-N-((3S,4S)-4-fluoropiperidin-3-yl)pyrazin-2-amine]	< 0.17 nM	< 0.17 nM	4.6 nM	–	–	–
COc1cn2ncc(-c3nc(N[C@@H]4CCCNC4)ncc3F)c2nc1C1CC1 [Compound 14a, (R)-4-(5-cyclopropyl-6-methoxypyrazolo[1,5-a]pyrimidin-3-yl)-5-fluoro-N-(piperidin-3-yl)pyrimidin-2-amine]	< 0.17 nM	< 0.17 nM	1.6 nM	–	–	–
COc1cn2ncc(-c3nc(N[C@H]4CNCC[C@@H]4F)ncc3F)c2nc1C1CC1 [Compound 15a, 4-(5-cyclopropyl-6-methoxypyrazolo[1,5-a]pyrimidin-3-yl)-5-fluoro-N-((3S,4S)-4-fluoropiperidin-3-yl)pyrimidin-2-amine]	< 0.17 nM	< 0.17 nM	1.4 nM	–	–	–

Second part, the compound after the results:

Kd ([1]; Table 19)	Kd ([2]; Table 19)	Kd ([3]; Table 19)	Kd ([1]; Table 13)	Kd ([2]; Table 13)	Kd ([3]; Table 13)	Structure (SMILES)
< 0.17 nM	< 0.17 nM	4.8 nM	–	–	–	COc1cn2ncc(-c3nc(N[C@H]4CNCC[C@@H]4F)ncc3F)c2nc1C(C)(C)O [Compound 6a, 2-(3-(5-fluoro-2-(((3S,4S)-4-fluoropiperidin-3-yl)amino)pyrimidin-4-yl)-6-methoxypyrazolo[1,5-a]pyrimidin-5-yl)propan-2-ol]
–	–	–	< 0.17 nM	< 0.17 nM	5.4 nM	COc1cn2ncc(-c3nc(N[C@H]4CNCC[C@@H]4F)c(C#N)cc3F)c2nc1C(C)(C)O [Compound 10, 5-fluoro-2-(((3S,4S)-4-fluoropiperidin-3-yl)amino)-6-(5-(2-hydroxypropan-2-yl)-6-methoxypyrazolo[1,5-a]pyrimidin-3-yl)nicotinonitrile]
–	–	–	< 0.17 nM	< 0.17 nM	3.7 nM	COc1cn2ncc(-c3nc(N[C@H]4CNCC[C@@H]4F)c(F)cc3F)c2nc1C(C)(C)O [Compound 13, 2-(3-(3,5-difluoro-6-(((3S,4S)-4-fluoropiperidin-3-yl)amino)pyridin-2-yl)-6-methoxypyrazolo[1,5-a]pyrimidin-5-yl)propan-2-ol]
